Reference: paper PMC9302014, “PEGylation improves the therapeutic potential of dimerized translationally controlled tumor protein blocking peptide in ovalbumin-induced mouse model of airway inflammation” (Drug Delivery, 2022)

Tested on: OVA-induced allergic airway inflammation
Experiment: Mouse model of OVA-induced allergic airway inflammation
Format: in vivo
Details: single 1 mg/kg intraperitoneal on day 32, n = 10-12
Method: Sixty female BALB/c mice, 6–7 weeks of age, were randomly divided into five groups (12 mice per group) and intraperitoneally sensitized on days 1 and 14 with 50 μg OVA emulsified in 2 mg aluminum hydroxide in a total volume of 200 μl. The control group of naïve mice received the same volume of PBS for the duration of the experiment. Two weeks after the second sensitization, the animals were challenged with 200 μg of OVA through intranasal administration under light anesthesia on days 28, 30, 32, and 34. […]. On day 35, the mice were sacrificed and BALF, lung tissue, and serum were collected for further analysis.
Mice were anesthetized, and the trachea was excised, and cannulated with a polyethylene tube. The lungs were lavaged with 0.8 ml of PBS four times, and 0.6 ml of BALF was obtained. The collected lavage fluid was cooled on ice and centrifuged at 1,000 rpm for 10 min at 4 °C. The supernatant was used for ELISA assays. The pellets were resuspended in 0.1 ml PBS, and the total inflammatory cell numbers were quantified using a Hemavet (Drew Scientific Inc., Oxford, CT).
After lavage, the right lung lobe was isolated and stored at −80 °C until required. The lung tissue was homogenized in 50 mM Tris-HCl buffer (pH 7.4) containing 150 mM NaCl, 1 mM EDTA, 0.25% deoxycholate, and a protease inhibitor (Sigma) using a tissuelyser II (Qiagen). The lung homogenates were centrifuged at 10,000 × g for 10 min, and the supernatants were collected and used for ELISA assay.
The left lung lobe was fixed in 4% formaldehyde, embedded in paraffin, and sectioned at a thickness of 4 μm. The sections were stained with hematoxylin and eosin (H&E) to detect infiltration of inflammatory cells and with periodic acid-Schiff (PAS) staining for the analysis of goblet cells hyperplasia/mucus production. The H&E stained sections were scored for the presence of inflammatory cells using the following scale: (0) = absent, (1) = rare, (2) = mild, (3) = moderate, (4) = severe. Scoring was performed by 6 observers in a blinded manner. Also, the area of H&E stained cells was quantified in the selected field, and the area of PAS-positive cells per bronchiole was expressed as the % of the total epithelial area using ImageJ software (National Institute of Health, Bethesda, MD).
Statistical analysis was performed using GRAPHPAD^TM PRISM version 8.0 for Windows (GraphPad Software, San Diego, CA). Statistical significance was determined using Student’s two-tailed unpaired t-test for comparisons between two groups. For more than 3 groups, a one-way analysis of variance (ANOVA) was followed by Tukey’s test. Error bars were expressed as the mean ± the standard error of the mean (SEM) of 10 to 12 mice per group. Significant differences between means were defined as p < 0.05.

`C[C@@H]1C[C@H]2[C@@H]3CCC4=CC(=O)C=C[C@]4(C)[C@@]3(F)[C@@H](O)C[C@]2(C)[C@@]1(O)C(=O)CO` [Dex, dexamethasone] was tested, and the “levels of IL-4, IL-5, and IL-13 in lung homogenates increased by OVA challenge” value (ELISA) was “suppressed”, the “number of lymphocytes in BALF compared to the OVA group” value was “did not significantly suppress” and the “number of monocytes in BALF compared to the OVA group” value was “did not significantly suppress”. For the same compound, the “number of total cells (total leukocytes) in BALF compared to the OVA-challenged group” value was “no difference”.
